Results reported in US11970448B2, “Monomers capable of dimerizing in an aqueous solution, and methods of using same” (CORNELL UNIVERSITY, priority 2011, dated 2024).

Molecular target: T1, recominbant human tryptase, beta, from lung (Homo sapiens, UniProt P20231)
T1 construct: purchased Promega or Enzo Life Sciences G5631 or BML-SE418
Experiment: Inhibition of tryptase activity by monomers and multimers (Boc-Gln-Ala-Arg-AMC fluorescence)
Type: biochemical
Conditions: monomers against tryptase, Table 5; read-out: Monomer IC50 range
Summary of the method: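 Recombinant human lung β-tryptase (1 nM final; stock with heparin sulfate and 1 M NaCl) preincubated with test substance, then 200 μM Boc-Gln-Ala-Arg-AMC added in 50 mM HEPES, 150 mM NaCl, 100 μM EDTA, 0.02% Tween-20, pH 7.4. AMC fluorescence (ex 367/em 468 nm) read every 30 s for 15–30 min; IC50 from Vmax concentration-response curves.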

T1 sequence (P20231 31-275): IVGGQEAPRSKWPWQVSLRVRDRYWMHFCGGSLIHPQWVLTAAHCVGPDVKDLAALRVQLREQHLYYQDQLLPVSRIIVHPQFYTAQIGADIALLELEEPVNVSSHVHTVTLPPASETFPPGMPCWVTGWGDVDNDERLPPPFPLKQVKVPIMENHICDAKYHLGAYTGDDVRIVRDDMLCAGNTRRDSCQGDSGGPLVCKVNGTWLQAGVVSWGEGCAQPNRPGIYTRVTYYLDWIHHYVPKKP

Row | Compound | IC50 [µM]
1 | NCc1cccc(C2CCN(C(=O)c3cc4ccc(O)c(O)c4oc3=O)CC2)c1 [T102] | 0.0001 to 1
2 | NCc1cccc(C2CCN(C(=O)c3cccc(OCC(O)(C(=O)O)C4CCCC4)c3)CC2)c1 (stereo not shown) [T103, 3-(3-(4-(3-(aminomethyl)phenyl)piperidine-1-carbonyl)phenoxy)-2-cyclopentyl-2-hydroxypropanoic acid] | 0.0001 to 1

Same assay, conditions: monomers against tryptase, entry marked (1:10); read-out: IC50 range group of additional monomers marked (1:10)

Row | Compound | IC50 [µM]
3 | NCc1cccc(C2CCN(C(=O)c3cc4ccc(O)c(O)c4oc3=O)CC2)c1 [T102] | 0.0001 to 1
4 | NCc1cccc(C2CCN(C(=O)c3cccc(OCC(O)(C(=O)O)C4CCCC4)c3)CC2)c1 (stereo not shown) [T103, 3-(3-(4-(3-(aminomethyl)phenyl)piperidine-1-carbonyl)phenoxy)-2-cyclopentyl-2-hydroxypropanoic acid] | 0.0001 to 1
5 | CSc1sc(C(=O)N2CCC3(CC2)COc2ccc(CN)cc23)cc1-c1cccc(B(O)O)c1 [T116SPIRO] | 0.0001 to 1

Same assay, conditions: monomers against tryptase; read-out: IC50 range group of additional monomers (boronic acid, benzooxaborole, ligands)

Row | Compound | IC50 [µM]
6 | COc1cc(C(=O)N2CCC3(CC2)COc2ccc(CN)cc23)cc(O)c1O [T104SPIRO] | 0.0001 to 1
7 | COc1cc(C(=O)N2CCC(c3cccc(CN)c3)CC2)cc(O)c1O [T104] | 0.0001 to 1
8 | Cc1cc(C(=O)N2CCC(c3cccc(CN)c3)CC2)cc(-c2cccc(B(O)O)c2)c1C [T107] | 1 to 10
9 | NCc1ccc2c(c1)C1(CCN(C(=O)c3ccc(Cl)c(-c4cccc(B(O)O)c4)c3)CC1)CO2 [T109SPIRO] | 0.0001 to 1
10 | NCc1ccc2c(c1)C1(CCN(C(=O)c3cccc(-c4cccc5c4COB5O)c3)CC1)CO2 [T112SPIRO] | 1 to 10
11 | Cc1cc(C(=O)N2CCC3(CC2)COc2ccc(CN)cc23)cc(CO)c1O [T113SPIRO] | 0.0001 to 1
12 | CONC(=O)c1cc(C(=O)N2CCC3(CC2)COc2ccc(CN)cc23)cc(C)c1O [T114Spiro] | 0.0001 to 1
13 | CSc1sc(C(=O)N2CCC3(CC2)COc2ccc(CN)cc23)cc1-c1cccc2c1C(C)OB2O (stereo not shown) [T117GEMMONO] | 0.0001 to 1
14 | CSc1sc(C(=O)N2CCC3(CC2)COc2ccc(CN)cc23)cc1-c1cccc2c1COB2O [T117SPIRO] | 0.0001 to 1
15 | CC(C)(O)c1ccc(C(=O)N2CCC(c3cccc(CN)c3)CC2)cc1O [T126] | 1 to 10
16 | COc1ccc(C(=O)N2CCC(c3cccc(CN)c3)CC2)c(O)c1O [T127] | 1 to 10
17 | NCc1ccc2c(c1)C1(CCN(C(=O)c3cccc(-c4ccc(F)c(B(O)O)c4)c3)CC1)CO2 [T131SPIRO] | 0.0001 to 1
18 | NCc1ccc2c(c1)C1(CCN(C(=O)c3cccc(-c4cc(F)cc(B(O)O)c4)c3)CC1)CO2 [T132SPIRO] | 1 to 10
19 | NCc1ccc2c(c1)C1(CCN(C(=O)c3cccc(-c4cccc(B(O)O)c4F)c3)CC1)CO2 [T133SPIRO] | 0.0001 to 1
20 | CONC(=O)c1cc(C)cc(C(=O)N2CCC(c3cccc(CN)c3)CC2)c1O [T136A] | 0.0001 to 1
21 | CN(Cc1ccccc1B(O)O)c1cccc2c(C(=O)N3CCC(c4cccc(CN)c4)CC3)cccc12 [T143] | 1 to 10
22 | Cc1c(CC(=O)N2CCC(c3cccc(CN)c3)CC2)c(=O)oc2cc(N(C)Cc3ccccc3B(O)O)ccc12 [T144] | 1 to 10
23 | CN(Cc1ccccc1B(O)O)c1cccc(C(=O)N2CCC(c3cccc(CN)c3)CC2)c1 [T146] | 10 to 65
24 | CN(Cc1ccccc1B(O)O)c1ccc(C(=O)N2CCC(c3cccc(CN)c3)CC2)cc1 [T147] | 1 to 10
25 | CN(Cc1ccccc1B(O)O)c1ccc2c(C(=O)N3CCC(c4cccc(CN)c4)CC3)cccc2c1 [T154] | 1 to 10
26 | CN(C)c1ccc(B(O)O)cc1-c1cccc(C(=O)N2CCC3(CC2)COc2ccc(CN)cc23)c1 [T155SPIRO] | 1 to 10
27 | NCc1cccc(C2CCN(C(=O)c3cnc4c(B(O)O)cccc4c3)CC2)c1 [T156] | 0.0001 to 1
28 | CC(C)(C)ONC(=O)c1cc(C(=O)N2CCC3(CC2)COc2ccc(CN)cc23)ccc1O [T920TBSPIRO] | 1 to 10
